Measured values from patent US20230129485A1, “SYSTEM AND METHOD FOR DETERMINING MATERIAL PROPERTIES OF MOLECULAR SYSTEMS FROM AN AB-INITIO PARAMETERIZED FORCE-FIELD” (InterX, Inc., priority 2021, published 2023).
Read-outs that look alike come from different tables or passages of the source.

What was measured:
[1] = Free energy of hydration by Polarizable Continuum Model (PCM); conditions: absolute error vs Exp (hydration)
Outline: (§1)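 Computed, not measured. COSMO: run in MolPro on the dataset. SMD/PCM: predicted values supplied externally. SMD, PCM, COSMO-RS restricted to the overlap with the QM-parameterized force field molecule set.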

[2] = Free energy of hydration by COSMO implicit solvent model (MolPro ver. 2012); conditions: absolute error vs Exp (hydration)
Outline: as §1

[3] = implicit solvent model, values received; cited from earlier work
[4] = Free energy of hydration by Solvation Model Dielectric (SMD) implicit solvent model; conditions: absolute error vs Exp (hydration)
Outline: as §1

[5] = Table 5; free energy of hydration, GAFF prediction taken from literature; cited from earlier work
[6] = Free energy of hydration predicted by General Amber Force Field (GAFF), from literature; conditions: Table 5; error of GAFF hydration free energy vs experiment
[7] = Free energy of hydration by COSMO-RS
Outline: as §1

[8] = experimental, cited from earlier work; for Exp (hydration): Table 5
[9] = Free energy of hydration predicted with the QM-parameterized force field model (ARROW FF), classical MD and PIMD simulation in a water box; conditions: for Arrow error: Table 5, error of Arrow PIMD8 hydration free energy vs experiment; for Arrow PIMD8 Error: absolute error vs Exp (hydration)
Outline: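 Solute decoupled from solvent in a 32×32×32 Å3 water box (PME, 9 Å cutoffs), electrostatics, exchange-repulsion and dispersion switched off together over 15 lambda points with soft-coring. Steepest-descent minimization, 50 ps equilibration, 1 ns NPT production at 1 atm; classical and path-integral MD. Free energy from BAR and TI.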

[10] = experimental, cited from earlier work
[11] = Table 5; free energy of hydration, AMOEBA prediction taken from literature; cited from earlier work
[12] = implicit solvent model, values received; cited from earlier work; remark: listed apart in the source
[13] = Free energy of hydration predicted by polarizable AMOEBA force field, from literature; conditions: Table 5; error of AMOEBA hydration free energy vs experiment
[14] = Free energy of solvation in cyclohexane predicted with the QM-parameterized force field model (ARROW FF), MD and PIMD; conditions: Table 4; for CHEX Arrow MD Error: error of MD cyclohexane solvation free energy vs experiment; for CHEX Arrow PIMD4 Error: error of PIMD4 cyclohexane solvation free energy vs experiment
From the text: Cyclohexane (CHEX) is nonpolar and equilibrates relatively quickly.
Particle-Mesh Ewald (PME) algorithm was used to compute the electrostatic interactions. A 32×32×32 grid mesh and 5th power spline interpolation order can be used to compute the inverse PME sum. 9 Å cutoffs were used to compute the direct PME sum as well as the exchange and dispersion interactions. Bulk corrections were applied to account for distance cut-off of dispersion interactions. Solvation free energies were computed by decoupling the interactions between the solute and the solvent molecules. Electrostatic, exchange-repulsion and dispersion interactions were switched off simultaneously using a lambda-dependent scaling (a scaling factor power=2 was used) and a soft-coring algorithm (maximal soft-coring radius=1.5 Å, soft-coring radius scaling factor power=1). 15 lambda points unequally spaced (X=0, 0.05, 0.1, 0.2, 0.3, 0.4, 0.5, 0.6, 0.7, 0.75, 0.8, 0.85, 0.9, 0.95, 1.0) were used to decouple the solute-solvent intermolecular interactions.
In some simulations of the QM-parameterized force field molecular simulation process, energy minimization (10,000 steps) using the steepest descent algorithm was initially performed on all the simulation systems. This was followed by a 50 ps equilibration and 1 ns production runs in the isothermal-isobaric ensemble (NPT). […] Pressure was maintained at 1 atm using a MTTK barostat (relaxation time=5 ps). A Multiple Time Step (MTS) algorithm was used to integrate the equations of motion both for the classical and path-integral runs. […] The calculations were performed using the QM-parameterized force field model.
Using the QM-parameterized force field model, the QM-parameterized force field device can compute or predict the solvation free energies using both the Bennett acceptance ratio (BAR) and thermodynamic integration (TI) method with <dH/dλ> values interpolated by cubic splines.

[15] = Table 3; CHEX/H2O partition coefficient, experimental; cited from earlier work
[16] = CHEX/H2O partition coefficient (log D) predicted with the QM-parameterized force field model (ARROW FF); conditions: Table 3
Outline: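 Cyclohexane/water partition coefficients were predicted by molecular simulation with a QM-parameterized force field, with bonded force constants and equilibrium values fitted to MP2/aug-cc-pVTZ energies. Solutes carried neutral functional groups, and results from four independent groups were averaged.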

[17] = Table 3, free energy of hydration
[18] = Table 4, neutral amino-acid analogues
[19] = Table 3, absolute error of MD hydration free energy vs experiment
[20] = Table 3, absolute error of PIMD8 hydration free energy vs experiment
[21] = Table 4, error of MD hydration free energy vs experiment
[22] = Table 4, error of PIMD8 hydration free energy vs experiment
[23] = Table 3, free energy of solvation in cyclohexane
[24] = Table 4, solvation free energy in cyclohexane

| Compound | PCM Error [1] | COSMO/Molpro Error [2] | SMD free energy of hydration [3] | SMD Error [4] | GAFF [5] | GAFF error [6] | COSMO-RS error [7] | water Exp (hydration) [8, 17] | water Exp (hydration) [8, 18] | Exp (hydration) ([8]; free energy of hydration) | water Arrow MD Error [9, 19] | water Arrow PIMD8 Error [9, 20] | water Arrow MD Error [9, 21] | water Arrow PIMD8 Error [9, 22] | Arrow error [9] | Arrow PIMD8 Error [9] | CHEX Exp (solvation) [10, 23] | AMOEBA [11] | PCM free energy of hydration [12] | AMOEBA error [13] | further results |
| --- | --- | --- | --- | --- | --- | --- | --- | --- | --- | --- | --- | --- | --- | --- | --- | --- | --- | --- | --- | --- | --- |
| Cc1ccccc1 [Toluene] | 0.71 kcal/mol | 2.41 kcal/mol | -0.30 kcal/mol | 0.59 kcal/mol | -0.71 kcal/mol | 0.18 kcal/mol | 0.12 kcal/mol | -0.89 kcal/mol | -0.89 kcal/mol | -0.89 kcal/mol | 0.83 kcal/mol | 0.10 kcal/mol | 0.83 kcal/mol | 0.10 kcal/mol | 0.10 kcal/mol | 0.10 kcal/mol | -4.90 kcal/mol | -1.53 kcal/mol | -1.60 kcal/mol | 0.64 kcal/mol | CHEX Exp (solvation) [10, 24]: -4.90 kcal/mol; CHEX Arrow MD Error [14]: 0.94 kcal/mol; CHEX Arrow PIMD4 Error [14]: 0.62 kcal/mol |
| Oc1ccccc1 [Phenol] | 2.62 kcal/mol | 0.92 kcal/mol | -5.20 kcal/mol | 1.42 kcal/mol | -5.67 kcal/mol | 0.95 kcal/mol | 0.62 kcal/mol | -6.62 kcal/mol |  | -6.62 kcal/mol | 1.02 kcal/mol | 0.18 kcal/mol |  |  | 0.18 kcal/mol | 0.18 kcal/mol | -5.56 kcal/mol | -5.05 kcal/mol | -4.00 kcal/mol | 1.57 kcal/mol | Exp (log D) [15]: −0.78; log D Arrow MD Error ([16]; absolute error of MD log D vs experiment): 0.65; log D Arrow PIMD Error ([16]; absolute error of PIMD log D vs experiment): 0.21 |
| CC(N)=O [Acetamide] | 2.81 kcal/mol | 4.11 kcal/mol | -9.00 kcal/mol | 0.71 kcal/mol | -7.80 kcal/mol | 1.91 kcal/mol | 2.55 kcal/mol | -9.71 kcal/mol | -9.71 kcal/mol | -9.71 kcal/mol | 0.87 kcal/mol | 0.06 kcal/mol | 0.87 kcal/mol | 0.06 kcal/mol | 0.06 kcal/mol | 0.06 kcal/mol | -3.01 kcal/mol | -9.30 kcal/mol | -6.90 kcal/mol | 0.41 kcal/mol | CHEX Exp (solvation) [10, 24]: -3.01 kcal/mol; CHEX Arrow MD Error [14]: 0.63 kcal/mol; CHEX Arrow PIMD4 Error [14]: 0.58 kcal/mol |
